Assay results: patent US20160209428A1, “DIAGNOSTIC AND PREDICTIVE METABOLITE PATTERNS FOR DISORDERS AFFECTING THE BRAIN AND NERVOUS SYSTEM” (THE REGENTS OF THE UNIVERSITY OF CALIFORNIA, priority 2013, published 2016)

Tested on: Fragile X (Fmr1) knockout mouse
Assay: Social preference and social novelty, Fragile X model
Type: in vivo
Details: male Fmr1 KO mice, weekly suramin 20 mg/kg ip
Excerpt: A Fragile X (Fmr1) knockout mouse was used on the FVB strain background. It has the genotype: FVB.129P2-Pde6b^+ Tyr^c-ch Fmr1^tm1Cgr/J (Jackson Stock #004624). The Fmr1^tm1Cgr allele contains a neomycin resistance cassette replacing exon 5 that results in a null allele that makes no FMR mRNA or protein. The control strain used has the genotype: FVB.129P2-Pde6b^+ Tyr^c-ch/AntJ (Jackson Stock #004828). […] The wild-type Pde6b locus from the 129P2 ES cells corrects the retinal degeneration phenotype that produces blindness by 5 weeks of age in typical FVB mice. The Fmr1 locus is X-linked, so males are hemizygous and females are homozygous for the knockout. A metabolomic analysis on Fmr1 knockout mice on the C57BL/6J background was also performed to refine the understanding of which metabolic disturbances were directly related to the Fmr1 knockout, and which were the result of changes in genetic background. For these studies the same Fmr1^tm1Cgr knockout allele bred on the C57BL6/J background was used. These animals had the genotype: B6.129P2-Fmr1^tm1Cgr/J (Jackson Stock#003025). […]
Altered social behavior is a measure of autism-like features in mouse models of autism. […] There was also a 35% reduction in social novelty, as measured by the time spent interacting with a novel mouse compared to a familiar mouse. […]

Compound: Cc1ccc(C(=O)Nc2ccc(S(=O)(=O)O)c3cc(S(=O)(=O)O)cc(S(=O)(=O)O)c23)cc1NC(=O)c1cccc(NC(=O)Nc2cccc(C(=O)Nc3cc(C(=O)Nc4ccc(S(=O)(=O)O)c5cc(S(=O)(=O)O)cc(S(=O)(=O)O)c45)ccc3C)c2)c1 [Suramin, suramin]
- altered social behavior (social preference, social novelty): corrected
